# Results taken from publication PMC4885879, “Genomic Rearrangements and Functional Diversification of lecA and lecB Lectin-Coding Regions Impacting the Efficacy of Glycomimetics Directed against Pseudomonas aeruginosa” (Frontiers in Microbiology, 2016).
# Tests used:
# LecBPA7 [1] = molecular target: T1, LecBPA7 (Pseudomonas paraeruginosa, UniProt A6V267); assay: ITC; format: binding; set-up: gene PSPA7_1769; recombinant LecBPA7
# LecBPA7 [2] = molecular target: T1, LecBPA7; assay: X-ray crystal structure ([…] Å) and ITC; format: binding; set-up: gene PSPA7_1769; recombinant LecBPA7, 114 amino acids, tetramer
# T1 sequence (A6V267 entry or part of it): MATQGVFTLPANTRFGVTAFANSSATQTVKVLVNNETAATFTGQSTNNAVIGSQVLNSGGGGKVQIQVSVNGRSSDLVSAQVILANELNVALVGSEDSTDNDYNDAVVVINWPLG
SMILES,Kd (LecBPA7 [1]) [nM],Kd (LecBPA7 [2]) [nM]
"CO[C@@H]1O[C@@H](C)[C@@H](O)[C@@H](O)[C@@H]1O [FucOMe, methyl α-L-fucoside]",2200,
CC(=O)N[C@H]1[C@H](O[C@H]2[C@@H](O)[C@@H](CO)OC(O)[C@@H]2O)O[C@H](CO)[C@@H](O[C@@H]2O[C@@H](C)[C@@H](O)[C@@H](O)[C@@H]2O)[C@@H]1O[C@@H]1O[C@H](CO)[C@H](O)[C@H](O)[C@H]1O (stereo partly drawn) [Lewis^a tetrasaccharide],,2010
"CO[C@H]1O[C@H](CO)[C@@H](O)[C@H](O)[C@@H]1O [ManOMe, methyl α-D-mannoside]",73000,
